Experimental data taken from ChEMBL document CHEMBL5506004, “Optimizing drug-like properties of selective butyrylcholinesterase inhibitors for cognitive improvement: Enhancing aqueous solubility by disrupting molecular plane” (Eur J Med Chem, 2024).
In brackets after ≈: the same amount, converted by molar mass. Activity calls are given as the source filed them. The rule behind the calls is not given here.

Tested on: not listed separately
Assay: AUC (0 to t) in Sprague-Dawley rat at 10 mg/kg, po measured for 1 to 1440 mins by LC-MS/MS analysis
Type: ADME, organism-based
Conditions: in vivo, time 1-1440 min

Row | AUC(0-t) | SMILES
1 | 3.36 µg·h/mL | N#Cc1cc(Br)cc(NC(=O)Cn2c(-c3nonc3N)nc3ccccc32)c1

Tested on: not listed separately
Assay: Solubility of compound in FaSSIF incubated for 24 hrs by HPLC analysis
Type: ADME
Conditions: not given

Row | SMILES | solubility at 24 h
2 | Nc1c2c(nc3ccccc13)CCCC2 [TACRINE] | 1440 µM (≈ 285 µg/mL)
3 | Nc1nonc1-c1nc2ccccc2n1CC(=O)Nc1ccccn1 | 322 µM (≈ 108 µg/mL)
4 | Nc1nonc1-c1nc2ccccc2n1CC(=O)Nc1ccc(N2CCOCC2)cc1 | 861 µM (≈ 361 µg/mL)
5 | Nc1nonc1-c1nc2ccccc2n1CC(=O)Nc1cccc(C(=O)O)c1 | ≥ 5290 µM
6 | Nc1nonc1-c1nc2ccccc2n1CC(=O)Nc1cccc(N2CCCC2)c1 | 104 µM (≈ 42 µg/mL)
7 | COC(=O)c1ccnc(NC(=O)Cn2c(-c3nonc3N)nc3ccccc32)c1 | 175 µM (≈ 68.8 µg/mL)
8 | Nc1nonc1-c1nc2ccccc2n1CC(=O)NC1CCCCC1 | 232 µM (≈ 79 µg/mL)
9 | CN1CCN(C(=O)Cc2cccc(NC(=O)Cn3c(-c4nonc4N)nc4ccccc43)c2)CC1 | 1330 µM (≈ 631 µg/mL)
10 | Nc1nonc1-c1nc2ccccc2n1CC(=O)Nc1cncc(C(F)(F)F)c1 | 660 µM (≈ 266 µg/mL)
11 | Nc1nonc1-c1nc2ccccc2n1CC(=O)Nc1cncc(F)c1 | 512 µM (≈ 181 µg/mL)
12 | Nc1nonc1-c1nc2ccccc2n1CC(=O)Nc1ccccc1N1CCOCC1 | 536 µM (≈ 225 µg/mL)
13 | CN1CCN(c2cccc(NC(=O)Cn3c(-c4nonc4N)nc4ccccc43)c2)CC1 | 2820 µM (≈ 1220 µg/mL)
14 | CN1CCN(C(=O)Cc2ccc(NC(=O)Cn3c(-c4nonc4N)nc4ccccc43)cc2)CC1 | 1770 µM (≈ 842 µg/mL)
15 | Nc1nonc1-c1nc2ccccc2n1CC(=O)Nc1cccc(N2CCCCC2)c1 | 74.3 µM (≈ 31 µg/mL)
16 | CN1CCN(Cc2ccc(NC(=O)Cn3c(-c4nonc4N)nc4ccccc43)cc2)CC1 | 2660 µM (≈ 1190 µg/mL)
17 | N#Cc1cc(Br)cc(NC(=O)Cn2c(-c3nonc3N)nc3ccccc32)c1 | 379 µM (≈ 166 µg/mL)

Tested on: not listed separately
Assay: Acute toxicity in ICR mouse assessed as animal death at 1 g/kg, IG
Conditions: in vivo, po, 1000 mg/kg

Row | SMILES | Activity
18 | CN1CCN(c2cccc(NC(=O)Cn3c(-c4nonc4N)nc4ccccc43)c2)CC1 | Non-Toxic

Tested on: HT-22
Assay: Cytotoxicity against mouse HT-22 cells assessed as survival rate at 100 uM incubated for 24 hrs by MTT assay relative to control
Type: functional
Conditions: read-out: Survival

Row | SMILES | viability at 100 µM
19 | CN1CCN(c2cccc(NC(=O)Cn3c(-c4nonc4N)nc4ccccc43)c2)CC1 | 89.5%

Tested on: not listed separately
Assay: Metabolic stability in human liver microsomes assessed as compound metabolism at 2 uM measured for 60 mins by LC-MS/MS analysis
Type: ADME, Microsome
Conditions: read-out: Drug metabolism

Row | SMILES | metabolised at 1 h, 2 µM
20 | CN1CCN(c2cccc(NC(=O)Cn3c(-c4nonc4N)nc4ccccc43)c2)CC1 | < 15%

Tested on: not listed separately
Assay: Cytotoxicity against human L02 cells assessed as survival rate at 100 uM incubated for 24 hrs by MTT assay relative to control
Type: toxicity, cell-based
Conditions: read-out: Survival

Row | SMILES | viability at 24 h, 100 µM
21 | CN1CCN(c2cccc(NC(=O)Cn3c(-c4nonc4N)nc4ccccc43)c2)CC1 | 102%

Tested on: HT-22
Assay: Neuroprotective activity against glutamate-induced excitotoxicity in mouse HT-22 cells assessed as cell viability at 1 to 10 uM pretreated for 1 hr followed by glutamate addition measured after 24 hrs by MTT assay
Type: functional, cell-based
Conditions: dose 1-10 µM, time 25.0 hrs

Row | SMILES | Activity
22 | CN1CCN(c2cccc(NC(=O)Cn3c(-c4nonc4N)nc4ccccc43)c2)CC1 | Active

Tested on: not listed separately
Assay: Acute toxicity in ICR mouse assessed as animal growth at 1 g/kg, IG
Conditions: in vivo, po, 1000 mg/kg

Row | SMILES | Activity
23 | CN1CCN(c2cccc(NC(=O)Cn3c(-c4nonc4N)nc4ccccc43)c2)CC1 | Non-Toxic

Molecular target: Cholinesterase (Equus caballus, UniProt P81908)
Sequence (P81908 whole entry): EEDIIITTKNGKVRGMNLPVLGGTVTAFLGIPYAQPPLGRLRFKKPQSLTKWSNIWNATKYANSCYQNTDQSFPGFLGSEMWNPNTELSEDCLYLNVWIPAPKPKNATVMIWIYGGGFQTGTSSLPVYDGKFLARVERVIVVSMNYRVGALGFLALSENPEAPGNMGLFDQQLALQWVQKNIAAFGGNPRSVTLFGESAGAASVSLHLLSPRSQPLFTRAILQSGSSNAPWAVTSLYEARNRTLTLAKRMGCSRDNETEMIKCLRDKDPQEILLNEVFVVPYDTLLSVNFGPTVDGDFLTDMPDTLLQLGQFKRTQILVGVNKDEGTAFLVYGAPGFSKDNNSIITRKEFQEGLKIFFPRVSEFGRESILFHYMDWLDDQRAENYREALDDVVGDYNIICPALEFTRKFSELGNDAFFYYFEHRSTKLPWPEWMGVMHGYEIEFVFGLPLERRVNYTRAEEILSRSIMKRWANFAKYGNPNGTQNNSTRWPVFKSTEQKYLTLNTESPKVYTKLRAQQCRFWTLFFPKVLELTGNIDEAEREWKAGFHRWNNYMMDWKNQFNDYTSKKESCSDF
Assay: Inhibition of horse serum BChE using BTC iodide as substrate preincubated for 5 mins followed by substrate addition measured after 2 mins by Ellman's method
Conditions: not given

Row | SMILES | IC50
24 | Nc1nonc1-c1nc2ccccc2n1CC(=O)Nc1ccccn1 | 1.32 µM
25 | Nc1nonc1-c1nc2ccccc2n1CC(=O)Nc1ccc(N2CCOCC2)cc1 | 0.481 µM
26 | Nc1nonc1-c1nc2ccccc2n1CC(=O)Nc1cccc(C(=O)O)c1 | 1.97 µM
27 | Nc1nonc1-c1nc2ccccc2n1CC(=O)Nc1cccc(N2CCCC2)c1 | 0.00557 µM
28 | COC(=O)c1ccnc(NC(=O)Cn2c(-c3nonc3N)nc3ccccc32)c1 | 0.0331 µM
29 | Nc1nonc1-c1nc2ccccc2n1CC(=O)NC1CCCCC1 | 3.52 µM
30 | CN1CCN(C(=O)Cc2cccc(NC(=O)Cn3c(-c4nonc4N)nc4ccccc43)c2)CC1 | 1.94 µM
31 | Nc1nonc1-c1nc2ccccc2n1CC(=O)Nc1cncc(C(F)(F)F)c1 | 0.0945 µM
32 | Nc1nonc1-c1nc2ccccc2n1CC(=O)Nc1cncc(F)c1 | 0.0994 µM
33 | Nc1nonc1-c1nc2ccccc2n1CC(=O)Nc1ccccc1N1CCOCC1 | 2.47 µM
34 | CN1CCN(c2cccc(NC(=O)Cn3c(-c4nonc4N)nc4ccccc43)c2)CC1 | 0.0194 µM
35 | CN1CCN(C(=O)Cc2ccc(NC(=O)Cn3c(-c4nonc4N)nc4ccccc43)cc2)CC1 | 0.609 µM
36 | Nc1nonc1-c1nc2ccccc2n1CC(=O)Nc1cccc(N2CCCCC2)c1 | 0.00471 µM
37 | CN1CCN(Cc2ccc(NC(=O)Cn3c(-c4nonc4N)nc4ccccc43)cc2)CC1 | 0.0998 µM

Tested on: not listed separately
Assay: Permeability of compound at 50 ug/ml incubated for 18 hrs by PAMPA
Type: ADME
Conditions: dose 50 µg/ml, read-out: permeability

Row | SMILES | Papp at 18 h, 50 ug/ml
38 | CN1CCN(c2cccc(NC(=O)Cn3c(-c4nonc4N)nc4ccccc43)c2)CC1 | 35.7 nm/s

Tested on: SH-SY5Y
Assay: Cytotoxicity against human SH-SY5Y cells assessed as survival rate incubated for 24 hrs by MTT assay
Type: functional, cell-based
Conditions: not given

Row | SMILES | IC50
39 | CN1CCN(c2cccc(NC(=O)Cn3c(-c4nonc4N)nc4ccccc43)c2)CC1 | 10.3 µM

Tested on: not listed separately
Assay: Half life in Sprague-Dawley rat at 10 mg/kg, po measured for 1 to 1440 mins by LC-MS/MS analysis
Type: ADME, organism-based
Conditions: in vivo, time 1-1440 min

Row | half-life | SMILES
40 | 4.74 h | N#Cc1cc(Br)cc(NC(=O)Cn2c(-c3nonc3N)nc3ccccc32)c1

Tested on: not listed separately
Assay: Cmax in Sprague-Dawley rat at 10 mg/kg, po measured for 1 to 1440 mins by LC-MS/MS analysis
Type: ADME, organism-based
Conditions: in vivo, po, 10 mg/kg, time 1-1440 min

Row | Cmax | SMILES
41 | 0.97505 µg/mL | N#Cc1cc(Br)cc(NC(=O)Cn2c(-c3nonc3N)nc3ccccc32)c1

Tested on: not listed separately
Assay: MRT (infinity) in Sprague-Dawley rat at 10 mg/kg, po measured for 1 to 1440 mins by LC-MS/MS analysis
Type: ADME, organism-based
Conditions: in vivo, time 1-1440 min

Row | MRT inf | SMILES
42 | 7.37 h | N#Cc1cc(Br)cc(NC(=O)Cn2c(-c3nonc3N)nc3ccccc32)c1

Tested on: not listed separately
Assay: Oral bioavailability in Sprague-Dawley rat at 10 mg/kg measured for 1 to 1440 mins by LC-MS/MS analysis
Type: ADME, organism-based
Conditions: in vivo, time 1-1440 min

Row | bioavailability | SMILES
43 | 23.6% | N#Cc1cc(Br)cc(NC(=O)Cn2c(-c3nonc3N)nc3ccccc32)c1

Tested on: not listed separately
Assay: AUC (0 to infinity) in Sprague-Dawley rat at 10 mg/kg, po measured for 1 to 1440 mins by LC-MS/MS analysis
Type: ADME, organism-based
Conditions: in vivo, time 1-1440 min

Row | AUC(0-inf) | SMILES
44 | 3.78 µg·h/mL | N#Cc1cc(Br)cc(NC(=O)Cn2c(-c3nonc3N)nc3ccccc32)c1

Tested on: PC-12
Assay: Neuroprotective activity in rat PC12 cells assessed as cell viability pretreated for 2 hrs followed by H2O2 addition measured after 24 hrs by MTT assay
Type: functional, cell-based
Conditions: time 26.0 hrs

Row | SMILES | Activity
45 | CN1CCN(c2cccc(NC(=O)Cn3c(-c4nonc4N)nc4ccccc43)c2)CC1 | Dose-Dependent Effect

Tested on: BV-2
Assay: Cytotoxicity against mouse BV-2 cells assessed as survival rate incubated for 24 hrs by MTT assay
Type: functional, cell-based
Conditions: BV-2, 24 h

Row | SMILES | IC50
46 | CN1CCN(c2cccc(NC(=O)Cn3c(-c4nonc4N)nc4ccccc43)c2)CC1 | 16.9 µM

Tested on: PC-12
Assay: Cytotoxicity against rat PC12 cells assessed as survival rate at 100 uM incubated for 24 hrs by MTT assay relative to control
Type: functional
Conditions: read-out: Survival

Row | SMILES | viability at 100 µM
47 | CN1CCN(c2cccc(NC(=O)Cn3c(-c4nonc4N)nc4ccccc43)c2)CC1 | 82.6%

Tested on: not listed separately
Assay: Tmax in Sprague-Dawley rat at 10 mg/kg, po measured for 1 to 1440 mins by LC-MS/MS analysis
Type: ADME, organism-based
Conditions: in vivo, time 1-1440 min

Row | Tmax | SMILES
48 | 0.18 h | N#Cc1cc(Br)cc(NC(=O)Cn2c(-c3nonc3N)nc3ccccc32)c1

Molecular target: Cholinesterase (Homo sapiens, UniProt P06276)
Sequence (P06276 whole entry): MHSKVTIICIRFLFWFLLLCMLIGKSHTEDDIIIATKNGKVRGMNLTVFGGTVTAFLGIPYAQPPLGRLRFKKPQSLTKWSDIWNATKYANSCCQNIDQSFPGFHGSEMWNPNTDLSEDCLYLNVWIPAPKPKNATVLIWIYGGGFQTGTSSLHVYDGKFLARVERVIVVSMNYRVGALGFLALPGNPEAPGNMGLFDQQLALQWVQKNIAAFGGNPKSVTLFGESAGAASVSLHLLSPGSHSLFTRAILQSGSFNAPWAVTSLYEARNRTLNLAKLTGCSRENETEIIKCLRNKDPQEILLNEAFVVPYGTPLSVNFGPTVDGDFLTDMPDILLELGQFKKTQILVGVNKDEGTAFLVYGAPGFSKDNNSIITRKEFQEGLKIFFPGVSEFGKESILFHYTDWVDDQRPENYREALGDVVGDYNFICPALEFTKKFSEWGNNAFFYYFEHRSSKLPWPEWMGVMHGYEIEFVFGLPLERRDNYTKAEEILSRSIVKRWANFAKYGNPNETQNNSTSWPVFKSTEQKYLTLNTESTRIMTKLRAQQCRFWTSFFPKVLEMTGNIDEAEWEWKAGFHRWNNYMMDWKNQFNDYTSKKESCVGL
Assay: Inhibition of human BChE using BTC iodide as substrate preincubated for 5 mins followed by substrate addition measured after 2 mins by Ellman's method
Conditions: not given

Row | SMILES | IC50
49 | Nc1nonc1-c1nc2ccccc2n1CC(=O)Nc1cccc(N2CCCC2)c1 | 0.00226 µM
50 | CN1CCN(c2cccc(NC(=O)Cn3c(-c4nonc4N)nc4ccccc43)c2)CC1 | 0.121 µM
51 | Nc1nonc1-c1nc2ccccc2n1CC(=O)Nc1cccc(N2CCCCC2)c1 | 0.0212 µM
